Measured values taken from EPA's CvTdb concentration-time database.

Assays:
Test in all cases: concentration in plasma after dosing
Rat [1] = settings: dosed: 4-methylimidazole, 10 mg/kg, iv, Male, Harlan Sprague Dawley
Rat [2] = settings: 0.5 h; dosed: 4-methylimidazole; 10 mg/kg; iv; Male; Harlan Sprague Dawley
Rat [3] = settings: dosed: 4-methylimidazole, 10 mg/kg, iv, Male, Harlan Sprague Dawley; remark: listed apart in the source
Rat [4] = settings: dosed: 4-methylimidazole, 10 mg/kg, iv, Male, Harlan Sprague Dawley; remark: listed apart in the source
Rat [5] = settings: 0.75 h; dosed: 4-methylimidazole; 10 mg/kg; iv; Male; Harlan Sprague Dawley
Rat [6] = settings: dosed: 4-methylimidazole, 10 mg/kg, iv, Male, Harlan Sprague Dawley; remark: listed apart in the source
Rat [7] = settings: dosed: 4-methylimidazole, 10 mg/kg, iv, Female, Harlan Sprague Dawley
Rat [8] = settings: 0.75 h; dosed: 4-methylimidazole; 10 mg/kg; iv; Male; Harlan Sprague Dawley; remark: listed apart in the source
Rat [9] = settings: dosed: 4-methylimidazole, 10 mg/kg, iv, Male, Harlan Sprague Dawley; remark: listed apart in the source
Rat [10] = settings: dosed: 4-methylimidazole, 10 mg/kg, iv, Male, Harlan Sprague Dawley; remark: listed apart in the source
Rat [11] = settings: dosed: 4-methylimidazole, 10 mg/kg, iv, Male, Harlan Sprague Dawley; remark: listed apart in the source
Rat [12] = settings: dosed: 4-methylimidazole, 10 mg/kg, iv, Male, Harlan Sprague Dawley; remark: listed apart in the source
Rat [13] = settings: dosed: 4-methylimidazole, 10 mg/kg, iv, Male, Harlan Sprague Dawley; remark: listed apart in the source
Rat [14] = settings: dosed: 4-methylimidazole, 10 mg/kg, iv, Male, Harlan Sprague Dawley; remark: listed apart in the source
Rat [15] = settings: dosed: 4-methylimidazole, 10 mg/kg, iv, Male, Harlan Sprague Dawley; remark: listed apart in the source
Rat [16] = settings: dosed: 4-methylimidazole, 10 mg/kg, iv, Male, Harlan Sprague Dawley; remark: listed apart in the source
Rat [17] = settings: dosed: 4-methylimidazole, 10 mg/kg, iv, Male, Harlan Sprague Dawley; remark: listed apart in the source
Rat [18] = settings: dosed: 4-methylimidazole, 10 mg/kg, iv, Male, Harlan Sprague Dawley; remark: listed apart in the source
Rat [19] = test system: Rat
Rat [20] = settings: dosed: 4-methylimidazole, 10 mg/kg, iv, Male, Harlan Sprague Dawley; remark: listed apart in the source
Rat [21] = settings: dosed: 4-methylimidazole, 10 mg/kg, iv, Male, Harlan Sprague Dawley; remark: listed apart in the source
Rat [22] = settings: dosed: 4-methylimidazole, 10 mg/kg, iv, Male, Harlan Sprague Dawley; remark: listed apart in the source
Rat [23] = settings: dosed: 4-methylimidazole, 10 mg/kg, iv, Male, Harlan Sprague Dawley; remark: listed apart in the source
Rat [24] = settings: dosed: 4-methylimidazole, 10 mg/kg, iv, Male, Harlan Sprague Dawley; remark: listed apart in the source
Rat [25] = settings: dosed: 4-methylimidazole, 10 mg/kg, iv, Male, Harlan Sprague Dawley; remark: listed apart in the source
Rat [26] = settings: dosed: 4-methylimidazole, 10 mg/kg, iv, Male, Harlan Sprague Dawley; remark: listed apart in the source
Rat [27] = settings: dosed: 4-methylimidazole, 10 mg/kg, iv, Male, Harlan Sprague Dawley; remark: listed apart in the source
Rat [28] = settings: 0.5 h; dosed: 4-methylimidazole; 10 mg/kg; iv; Male; Harlan Sprague Dawley; remark: listed apart in the source
Rat [29] = settings: dosed: 4-methylimidazole, 10 mg/kg, iv, Female, Harlan Sprague Dawley; remark: listed apart in the source
Rat [30] = settings: dosed: Oxazepam, 400 mg/kg, oral, Female, F344
Rat [31] = settings: dosed: Oxazepam, 50 mg/kg, oral, Female, F344
Rat [32] = settings: dosed: Oxazepam, 50 mg/kg, oral, Male, F344
Rat [33] = settings: dosed: Oxazepam, 50 mg/kg, oral, Female, F344; remark: listed apart in the source
Rat [34] = settings: dosed: Oxazepam, 200 mg/kg, oral, Female, F344
Rat [35] = settings: dosed: Oxazepam, 200 mg/kg, oral, Female, F344; remark: listed apart in the source
Rat [36] = settings: dosed: Oxazepam, 50 mg/kg, oral, Female, F344; remark: listed apart in the source
Rat [37] = settings: 1 h; dosed: Oxazepam; 50 mg/kg; oral; Female; F344
Rat [38] = settings: dosed: Oxazepam, 400 mg/kg, oral, Male, F344
Rat [39] = settings: dosed: Oxazepam, 200 mg/kg, oral, Male, F344
Rat [40] = settings: dosed: Oxazepam, 200 mg/kg, oral, Female, F344; remark: listed apart in the source
Rat [41] = settings: dosed: Oxazepam, 50 mg/kg, oral, Male, F344; remark: listed apart in the source
Rat [42] = settings: dosed: Oxazepam, 200 mg/kg, oral, Female, F344; remark: listed apart in the source
Rat [43] = settings: dosed: Oxazepam, 200 mg/kg, oral, Male, F344; remark: listed apart in the source
Rat [44] = settings: 3.5 h; dosed: Oxazepam; 50 mg/kg; oral; Male; F344
Rat [45] = settings: 3.5 h; dosed: Oxazepam; 50 mg/kg; oral; Female; F344
Rat [46] = settings: dosed: Oxazepam, 200 mg/kg, oral, Male, F344; remark: listed apart in the source
Rat [47] = settings: dosed: Oxazepam, 50 mg/kg, oral, Male, F344; remark: listed apart in the source
Rat [48] = settings: dosed: Oxazepam, 200 mg/kg, oral, Male, F344; remark: listed apart in the source
Rat [49] = settings: dosed: Oxazepam, 400 mg/kg, oral, Female, F344; remark: listed apart in the source
Rat [50] = settings: dosed: Oxazepam, 200 mg/kg, oral, Female, F344; remark: listed apart in the source
Rat [51] = settings: dosed: Oxazepam, 200 mg/kg, oral, Female, F344; remark: listed apart in the source
Rat [52] = settings: dosed: Oxazepam, 200 mg/kg, oral, Female, F344; remark: listed apart in the source
Rat [53] = settings: dosed: Oxazepam, 50 mg/kg, oral, Male, F344; remark: listed apart in the source
Rat [54] = settings: dosed: Oxazepam, 200 mg/kg, oral, Male, F344; remark: listed apart in the source
Rat [55] = settings: dosed: Oxazepam, 200 mg/kg, oral, Female, F344; remark: listed apart in the source
Rat [56] = settings: dosed: Oxazepam, 400 mg/kg, oral, Male, F344; remark: listed apart in the source
Rat [57] = settings: dosed: Oxazepam, 50 mg/kg, oral, Female, F344; remark: listed apart in the source
Rat [58] = settings: dosed: Oxazepam, 200 mg/kg, oral, Male, F344; remark: listed apart in the source
Rat [59] = settings: dosed: Oxazepam, 200 mg/kg, oral, Male, F344; remark: listed apart in the source
Rat [60] = settings: dosed: Oxazepam, 50 mg/kg, oral, Male, F344; remark: listed apart in the source
Rat [61] = settings: dosed: Oxazepam, 50 mg/kg, oral, Female, F344; remark: listed apart in the source
Rat [62] = settings: dosed: Oxazepam, 200 mg/kg, oral, Male, F344; remark: listed apart in the source
Rat [63] = settings: 3.5 h; dosed: Oxazepam; 50 mg/kg; oral; Male; F344; remark: listed apart in the source
Rat [64] = settings: 2 h; dosed: Oxazepam; 50 mg/kg; oral; Male; F344
Rat [65] = settings: dosed: Oxazepam, 50 mg/kg, oral, Female, F344; remark: listed apart in the source

Cc1cnc[nH]1 [4-methylimidazole]
Settings	concentration in plasma [ng/mL]
Rat [1], 1 h	4110
Rat [1], 7 min	7090
Rat [3], 2 h	3340
Rat [3], 7 min	8240
Rat [4], 6 h	116
Rat [4], 20 min	6840
Rat [6], 2 h	3520
Rat [6], 10 min	6960
Rat [7], 1 h	6380
Rat [7], 2 min	10500
Rat [9], 4 h	1720
Rat [9], 10 min	7910
Rat [10], 1 h	4070
Rat [10], 2 min	10200
Rat [11], 0.75 h	3040
Rat [11], 8 h	656
Rat [12], 0.75 h	4780
Rat [12], 2 min	11800
Rat [13], 4 h	611
Rat [13], 10 min	8520
Rat [14], 4 h	960
Rat [14], 20 min	5890
Rat [15], 2 h	2460
Rat [15], 10 min	7010
Rat [16], 2 h	2740
Rat [16], 7 min	8150
Rat [17], 6 h	148
Rat [17], 20 min	6950
Rat [18], 0.5 h	5440
Rat [18], 8 h	88.2
Rat [20], 6 h	112
Rat [20], 20 min	7340
Rat [21], 0.75 h	5620
Rat [21], 8 h	74.3
Rat [22], 4 h	647
Rat [22], 20 min	6930
Rat [23], 1 h	4610
Rat [23], 2 min	12200
Rat [24], 4 h	1490
Rat [24], 10 min	7840
Rat [25], 2 h	2740
Rat [25], 7 min	8840
Rat [26], 0.5 h	5280
Rat [26], 6 h	108
Rat [27], 0.5 h	5620
Rat [27], 6 h	162
Rat [29], 1 h	5190
Rat [29], 2 min	12000

Settings	concentration in plasma [ng/mL]
Rat [2]	5770
Rat [5]	6160
Rat [8]	5440
Rat [28]	5420

concentration in plasma [ng/mL], Rat [19], dosed: 4-methylimidazole, 10 mg/kg, iv, Harlan Sprague Dawley
Settings	Female	Male
0.5 h	–	7300
0.75 h	–	6210
1 h	4810	–
2 h	–	2060
2 min	–	9350
4 h	–	690
6 h	–	454
7 min	8000	9000
8 h	–	205
10 min	–	8770
20 min	–	6950

O=C1Nc2ccc(Cl)cc2C(c2ccccc2)=NC1O (centres undefined) [Oxazepam]
Settings	concentration in plasma [ng/mL]
Rat [30], 1 h	3270
Rat [30], 10 h	4280
Rat [31], 1 h	1610
Rat [31], 10 h	820
Rat [32], 1 h	950
Rat [32], 10 h	390
Rat [33], 2 h	1620
Rat [33], 18 h	270
Rat [34], 6 h	1000
Rat [34], 20 min	1200
Rat [35], 2 h	2840
Rat [35], 18 h	760
Rat [36], 2 h	3640
Rat [36], 18 h	270
Rat [38], 1 h	2440
Rat [38], 10 h	3960
Rat [39], 1 h	1630
Rat [39], 10 h	2030
Rat [40], 2 h	3340
Rat [40], 18 h	3360
Rat [41], 1 h	1280
Rat [41], 10 h	520
Rat [42], 1 h	2300
Rat [42], 10 h	1720
Rat [43], 6 h	2020
Rat [43], 20 min	1470
Rat [46], 2 h	2210
Rat [46], 18 h	1850
Rat [47], 6 h	580
Rat [47], 20 min	400
Rat [48], 3.5 h	10500
Rat [48], 24 h	1320
Rat [49], 1 h	4120
Rat [49], 10 h	5630
Rat [50], 3.5 h	4280
Rat [50], 24 h	1460
Rat [51], 1 h	2880
Rat [51], 10 h	3470
Rat [52], 3.5 h	2990
Rat [52], 24 h	10000
Rat [53], 6 h	510
Rat [53], 20 min	290
Rat [54], 6 h	1960
Rat [54], 20 min	1020
Rat [55], 6 h	4550
Rat [55], 20 min	1250
Rat [56], 1 h	3500
Rat [56], 10 h	1790
Rat [57], 6 h	1560
Rat [57], 20 min	880
Rat [58], 1 h	2310
Rat [58], 10 h	1250
Rat [59], 3.5 h	2630
Rat [59], 24 h	520
Rat [60], 2 h	990
Rat [60], 18 h	370
Rat [61], 3.5 h	710
Rat [61], 24 h	450
Rat [62], 2 h	2130
Rat [62], 18 h	3140
Rat [65], 6 h	1630
Rat [65], 20 min	760

Settings	concentration in plasma [ng/mL]
Rat [37]	1290
Rat [44]	1070
Rat [45]	2510
Rat [63]	1260
Rat [64]	990

concentration in plasma [ng/mL], Rat [19], dosed: Oxazepam, oral, F344
Settings	1 h	2 h	3.5 h	6 h	10 h	18 h	20 min	24 h
50 mg/kg, Female	2850	1900	1170	1230	1380	280	560	–
50 mg/kg, Male	1230	1000	910	680	330	–	450	590
200 mg/kg, Female	3020	3870	2700	3910	5160	5030	1250	5000
200 mg/kg, Male	2370	–	3150	1580	1890	730	600	2280
400 mg/kg, Female	4100	–	–	–	4480	–	–	–
400 mg/kg, Male	3070	–	–	–	2910	–	–	–
